Experimental findings from paper PMC5589576, “Targeting the apoptotic Mcl-1-PUMA interface with a dual-acting compound” (Oncotarget, 2017) are described below.

Assay [1] deals with T1, Mcl-1WT (Homo sapiens, UniProt Q07820).
T1 construct: implied by Ni2+-NTA purification from pET-43.1a(+)); made in house; host or cells: E. coli BL21
The experiment in a line: FPA competition assay, wildtype Mcl-1. Type of assay: binding. Particulars: FITC-Mcl-BH3 probe.

Assay [2] has as its target T2, Mcl-1R244A (Homo sapiens, UniProt Q07820, R263A).
T2 construct: implied by Ni2+-NTA purification from pET-43.1a(+)); made in house; host or cells: E. coli BL21
The experiment in a line: FPA competition assay, mutant Mcl-1 R244A. The assay is classed as binding. How it is done: (§1) 1 protein was induced by 0.6 mM IPTG for 20 h in the Flow cytometry condition of 20°C, 160 rpm. The strains were harvested by centrifugation (6000 rpm, 10 min, 4°C) and broken Tested cells (A2780, MCF-7 and SMMC-7721) by ultrasonication (10 s operation and 10 s stop, 5 min). were plated in 6-well plates (1×10^5 cells/well) and treated […]
(§2) All cells were detached by trypsin and washed manufacturer ’s instructions. The purified Mcl-1 was (three times) by precooled PBS. The resuspended cells analyzed by 15% SDS-PAGE and dialyzed against 10 mM were stained by Annexin V-FITC and PI in sequence PBS (pH 7.4) before being stored under −80°C for later use. before being detected by flow cytometry.
(§3) FPA competition assays The FITC labelled
(§4) BH3 peptide of Mcl-1 (FITC-Mcl-BH3, FITC-AHx-Western blot analysis […]
(§5) and used as fluorescence probe in the FPA competition A2780, MCF-7 and SMMC-7721 cells treated with assays. All assays were performed in the assay and without Comp8 were harvested, washed by precooled

The target in assay [3] is T3, Mcl-1F251A (Homo sapiens, UniProt Q07820, F270A).
T3 construct: implied by Ni2+-NTA purification from pET-43.1a(+)); made in house; host or cells: E. coli BL21
T3 sequence (Q07820 172-327 F270A): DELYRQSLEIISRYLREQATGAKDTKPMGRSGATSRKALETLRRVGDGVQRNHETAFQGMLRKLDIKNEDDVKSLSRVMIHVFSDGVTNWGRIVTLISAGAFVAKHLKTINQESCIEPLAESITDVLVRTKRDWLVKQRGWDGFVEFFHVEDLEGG
Put plainly: FPA competition assay, mutant Mcl-1 F251A. Type of assay: binding. On the procedure:
as §1, §2, §3, §4, §5

For assay [4], the system named is Caspase-3, Cyto-c and Bcl-2 in A2780, MCF-7 and SMMC-7721 cells. The experiment in a line: Western blot analysis of apoptotic marker proteins. The assay is classed as cell-based. How it is done: as §4
-NH2) was synthesized […]
and used as fluorescence probe in the FPA competition A2780, MCF-7 and SMMC-7721 cells treated with assays. All assays were performed in the assay and without Comp8 were harvested, washed by precooled buffer (pH 7.4) composed of 20 mM Tris, 50 mM NaCl, PBS and split by RIPA lysis buffer (Thermo) containing 3 mM DTT and 2% DMSO. The FPA competition assays PMSF (protease inhibitor). Quantified protein samples were carried out in the 96-well, black, flat-bottom plates were separated by SDS-PAGE and then transferred to NC (Nunc). To check the interference effects of candidate membranes. After being blocked for 1h, all membranes compounds on the interaction between Mcl-1 and FITC- were incubated with primary antibodies against protein Mcl-BH3, solutions containing 250 nM Mcl-1 and 250 nM Caspase (1:500, Abcam), Cyto-c (1:500, Abcam) and fluorescence probes were titrated with 250 μM selected Bcl-2 (1:500, Abcam) at 4℃ overnight. […] The emission fluorescence changes were antibodies (1:10000, Jackson) for 1 h at 37°C, the signals recorded from 480 to 540 nm by TECAN Infinite M1000 were detected with ECL western blot detection system Microplate Spectrophotometer with excitation wavelength (Boster). being 432 nm. […]

T1 sequence (Q07820 172-327): as the sequence (Q07820 172-327 F270A) above, with A99F counted along it
T2 sequence (Q07820 172-327 R263A): as the sequence (Q07820 172-327 F270A) above, with R92A, A99F counted along it

For `O=C1N=C(N2CCN(CCO)CC2)S/C1=C\c1ccc(-c2ccccc2)cc1` [Comp8], the Ki – broadly, a measure of affinity in units of concentration, obtained from inhibition or displacement – is 300 ± 40 nM in assay [1], 3.52 ± 0.59 µM in assay [2] and 660 ± 130 nM in assay [3]. In assay [4], the “changes of three apoptosis indicators (WB)” value is recorded as “fitted well with the characteristics of apoptosis”.
